Assay results as given in PubChem BioAssay (NCI).
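Step 1: Grow cells in 96-well plates. Step 2: Expose to compound for 48 hours at 5 concentrations. Step 3: Interpolate endpoints linearly; if unreached, use highest concentration. Definition used: TGI = concentration required for complete inhibition of growth.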

Legend:
Assay in all cases: DTP human tumour cell line panel, 48 h
SK-MEL-2 melanoma = system: SK-MEL-2 melanoma
NCI-H23 lung = system: NCI-H23 lung
OVCAR-3 ovarian = system: OVCAR-3 ovarian
CAKI-1 renal = system: CAKI-1 renal
HT29 colon = system: HT29 colon
HS 578T breast = system: HS 578T breast
UO-31 renal = system: UO-31 renal
RXF 393 renal = system: RXF 393 renal
PC-3 prostate = system: PC-3 prostate
BT-549 breast = system: BT-549 breast
SK-OV-3 ovarian = system: SK-OV-3 ovarian
NCI/ADR-RES ovarian = system: NCI/ADR-RES ovarian
COLO 205 colon = system: COLO 205 colon
T-47D breast = system: T-47D breast
HCT-15 colon = system: HCT-15 colon
UACC-62 melanoma = system: UACC-62 melanoma
DU-145 prostate = system: DU-145 prostate
786-0 renal = system: 786-0 renal
LOX IMVI melanoma = system: LOX IMVI melanoma
MDA-N = system: MDA-N

SMILES | TGI (SK-MEL-2 melanoma) | TGI (NCI-H23 lung) | TGI (OVCAR-3 ovarian) | TGI (CAKI-1 renal) | TGI (HT29 colon) | TGI (HS 578T breast) | TGI (UO-31 renal) | TGI (RXF 393 renal) | TGI (PC-3 prostate) | TGI (BT-549 breast) | TGI (SK-OV-3 ovarian) | TGI (NCI/ADR-RES ovarian) | TGI (COLO 205 colon) | TGI (T-47D breast) | TGI (HCT-15 colon) | TGI (UACC-62 melanoma) | TGI (DU-145 prostate) | TGI (786-0 renal) | TGI (LOX IMVI melanoma) | TGI (MDA-N)
COC(=O)C1=CC2CCCC1(O)C(C(C)=O)C2 (stereo not given) | > 100 µM | > 100 µM | > 100 µM | > 100 µM | > 100 µM | > 100 µM | 38.6 µM | > 100 µM | > 100 µM | > 100 µM | > 100 µM | > 100 µM | > 100 µM | > 100 µM | > 100 µM | > 100 µM | > 100 µM | 41.3 µM | 34.3 µM | > 100 µM
COc1ccc2c(C)cc(N/N=C(\C)C=O)nc2c1 | 33.1 µM | 24.8 µM | 7.59 µM | 27.8 µM | 25 µM | 43.3 µM | 26.4 µM | 30.2 µM | 24.2 µM | 29.3 µM | 23.2 µM | 25.7 µM | 30.6 µM | 41.3 µM | 15.2 µM | 27.3 µM | 24.7 µM | 28.6 µM | 24 µM | 28.6 µM
O=c1cc(NNc2ccccc2)[nH]c(=S)[nH]1 | 61.3 µM | > 100 µM | 31.4 µM | 35.9 µM | > 100 µM | > 100 µM | > 100 µM | > 100 µM | > 100 µM | > 100 µM | > 100 µM | > 100 µM | > 100 µM | > 100 µM | 42.1 µM | > 100 µM | > 100 µM | > 100 µM | 31.3 µM | > 100 µM
COC(=O)c1ccccc1CC1Cc2ccc3c(c2C1=O)CCC3 (stereo not given) | > 100 µM | > 100 µM | > 100 µM | > 100 µM | > 100 µM | > 100 µM | > 100 µM | > 100 µM | > 100 µM | > 100 µM | > 100 µM | > 100 µM | > 100 µM | > 100 µM | > 100 µM | > 100 µM | > 100 µM | > 100 µM | > 100 µM | > 100 µM
